Source: patent publication US11192849B2, “Compounds, compositions, and methods for modulating ferroptosis and treating excitotoxic disorders” (THE TRUSTEES OF COLUMBIA UNIVERSITY IN THE CITY OF NEW YORK, priority 2013, dated 2021)
Like-named read-outs stand apart in the source and are kept apart here.

Tested on: HT-1080 cells
Experiment: Inhibition of erastin (10 μM)-induced death in HT-1080 cells (Alamar Blue)
Type: cell-based, human
Details: for prevention of erastin-induced death: erastin-treated HT-1080 cells
Description: Cell viability was typically assessed in 384-well format by Alamar Blue (Invitrogen) fluorescence (ex/em 530/590) measured on a Victor3 platereader (Perkin Elmer, Waltham, Mass.). In some experiments, Trypan Blue dye exclusion counting was performed using an automated cell counter (ViCell, Beckman-Coulter Inc., Brea, Calif.). Cell viability in test conditions is reported as a percentage relative to the negative control treatment.
The ability of various compounds disclosed herein to inhibit death in erastin (10 μM)-treated HT-1080 cells were tested. Cell viability was assessed by Alamar Blue. EC50 values (nM) were computed from dose response curves.
HT-1080 cells are cultured in DMEM containing 10% fetal bovine serum, 1% supplemented non-essential amino acids and 1% pen/strep mixture (Gibco) and maintained in a humidified environment at 37° C. with 5% CO2 in a tissue culture incubator. 1,000 HT-1080 cells are seeded per well in duplicate 384-well plates (Corning) using a BioMek FX liquid handling robot (Beckman Coulter). The next day, the medium is replaced with 36 μL of medium containing 10 μM erastin with 4 μL of medium containing a dilution series (previously prepared) of DMSO, Fer-1 (positive control) or Fer-1 analogs. 24 hours later, 10 μL Alamar Blue (Invitrogen) cell viability solution is added to the growth media to a final concentration of 10%. Cells are incubated a further 6 hours and then the Alamar Blue fluorescence intensity recorded using a Victor 3 platereader (PerkinElmer)(ex/em 530/590). All experiments are performed at least twice and the background (no cells)-subtracted Alamar Blue values for each combination are averaged between replicates.

[1] = SI Table 2, analogs with various hydrophobic moieties, read-out: EC50
[2] = Homo sapiens, HT-1080, SI Table 7, read-out: EC50
[3] = SI Table 3, cyclic amines bearing heteroatoms, read-out: EC50
[4] = Homo sapiens, HT-1080, SI Table 2, analogs with various hydrophobic moieties, read-out: EC50
[5] = Homo sapiens, HT-1080, SI Table 3, cyclic amines bearing heteroatoms, read-out: EC50

CCOC(=O)c1ccc(NC2CCC(C(C)(C)C)CC2)c(N)c1 (single isomer, unassigned) [SRS13-10_F1, Ethyl 3-amino-4-(4-tert-butylcyclohexyl-amino)benzoate]
EC50 [1]: 44 nM

CCOC(=O)c1ccc(NC2CCC(C(C)(C)C)CC2)c(N)c1 (single isomer, unassigned) [SRS13-10_F2, Ethyl 3-amino-4-(4-tert-butylcyclohexyl-amino)benzoate]
EC50 [1]: 13 nM

CCOC(=O)c1ccc(NC2CCC(C(C)(C)C)CC2)c(NCc2ccccc2)c1 (single isomer, unassigned) [SRS13-29, ethyl 3-(benzylamino)-4-(4-tert-butylcyclohexylamino)benzoate]
EC50 [2]: 83 nM

c1ccc(-c2ccccn2)nc1 [2,2-bipyridyl, reference compound]
protection when added after erastin (added up to 6 hours after erastin): substantial protection from death

NOCC(=O)O [AOA, aminooxyacetic acid, reference compound]
prevention of erastin-induced death: rescued both HT-1080 and BJeLR cells from erastin-induced ferroptosis

CC(=O)OCOC(=O)CN(CC(=O)OCOC(C)=O)c1ccccc1OCCOc1ccccc1N(CC(=O)OCOC(C)=O)CC(=O)OCOC(C)=O [BAPTA-AM, reference compound]
prevention of erastin-induced death: had no effect on erastin-induced death

CCOC(=O)c1ccc(NC2CCCCC2)c(NCc2ccc(OC(C)=O)cc2)c1 [Compound 4MO43, ethyl 4-(cyclohexylamino)-3-(4-(ethanoyloxy)benzylamino)-benzoate]
EC50 [2]: 47 nM

O=C(O)C(Cl)Cl [DCA, dichloroacetic acid, reference compound]
prevention of erastin-induced death: had no effect on erastin-induced ferroptosis

COC(=O)CCC(=O)C(=O)OC [DMK, dimethyl alpha ketoglutarate, reference compound]
prevention of erastin-induced death: the lethality of erastin was restored

O=C(O)CN(CCOCCOCCN(CC(=O)O)CC(=O)O)CC(=O)O [EGTA, reference compound]
prevention of erastin-induced death: had no effect on erastin-induced death

Cc1ccc(N(CC(=O)O)CC(=O)O)c(OCCOc2cc3cc(-c4ncc(C(=O)O)o4)oc3cc2N(CC(=O)O)CC(=O)O)c1 [Fura-2, reference compound]
prevention of erastin-induced death: had no effect on erastin-induced death

CC(C)(C)OC(=O)NCCOCCOC(=O)c1ccc(NC2CCCCC2)c(N)c1 [SRS8-37, 2-(2-(tert-butoxycarbonylamino)ethoxy)ethyl 3-amino-4-(cyclohexylamino)benzoate]
EC50 (Homo sapiens, HT-1080, SI Table 4, various R3 substitutions, read-out: EC50): 160 nM

CCOC(=O)c1ccc(NC2CCOCC2)c(N)c1 [SRS8-41]
EC50 [3]: 1450 nM

CCOC(=O)c1ccc(Nc2ccccc2)c(N)c1 [SRS8-42, ethyl 3-amino-4-(phenylamino)benzoate]
EC50 [4]: 200 nM

NCCOCCOC(=O)c1ccc(NC2CCCCC2)c(N)c1 [SRS8-43, 2-(2-aminoethoxy)ethyl 3-amino-4-(cyclohexylamino)benzoate]
EC50 (Homo sapiens, HT-1080, SI Table 4, various R3 substitutions): 420 nM

CCOC(=O)c1ccc(NC2CCC(NC(=O)OC(C)(C)C)CC2)c(N)c1 (stereo not drawn) [SRS8-46, ethyl 3-amino-4-(4-(tert-butoxycarbonylamino)cyclohexyl-amino)benzoate]
EC50 [5]: 515 nM

CCOC(=O)c1ccc(NC2CCN(C(=O)OC(C)(C)C)CC2)c(N)c1 [SRS8-47, tert-butyl 4-(2-amino-4-(ethoxycarbonyl)phenylamino)-piperidine-1-carboxylate]
EC50 [5]: 710 nM

CCOC(=O)c1ccc(NC2CCC(C)CC2)c(N)c1 (stereo not drawn) [SRS8-48, ethyl 3-amino-4-(4-methylcyclohexylamino)benzoate]
EC50 [4]: 90 nM

CCOC(=O)c1ccc(NC2CCC(F)(F)CC2)c(N)c1 [SRS8-52, ethyl 3-amino-4-(4,4-difluorocyclohexylamino)benzoate]
EC50 [5]: 650 nM

CCOC(=O)c1ccc(NN2CCN(C)CC2)c(N)c1 [SRS8-53]
EC50 [3]: 3600 nM

CCOC(=O)c1ccc(NC2CCN(C(=O)OCC)CC2)c(N)c1 [SRS8-54, ethyl 4-(2-amino-4-(ethoxycarbonyl)phenylamino)piperidine-1-carboxylate]
EC50 [5]: 2500 nM
